Data reported in US8034780B2, “Isolation, purification, and structure elucidation of the antiproliferative compound coibamide A” (priority 2007, dated 2011).
Several values for one entry are separate records, joined by “and”; a condition that tells them apart may be missing. Equal values may be shown once. Bridge positions count the residues as written; N and C are the ends. Square brackets hold non-standard residues; d marks the D form. Peptide text beside a SMILES is read from it. * marks the point of attachment. ξ: configuration not given here. NMeI = CC[CH](C)[CH](NC)C(=O)O; ξNMe2Val = CC(C)C(C(=O)*)N(C)C; NMeT = CN[CH](C(=O)O)[CH](C)O; NMeL = CN[CH](CC(C)C)C(=O)O; Hiv = CC(C)[CH](O)C(=O)O; NMeS = CN[CH](CO)C(=O)O; NMeA = CN[CH](C)C(=O)O

How the values were obtained:
[1] = tested on: NCI-H460 human lung tumor cells; experiment: MTT cytotoxicity, NCI-H460 cells; format: cell-based; settings: 48 hours, read-out: LC50 (the source's name)
Procedure: (§1) Cytotoxicity was measured in NCI-H460 human lung tumor cells and neuro-2a mouse neuroblastoma cells using the method of Alley et. al. (Cancer Res. (1988) 48:589-601) with cell viability being determined by 3-(4,5-dimethylthiazol-2-yl)-2,5-diphenyltetrazolium bromide (MTT) reduction (Manger et al. (1995) J. AOAC Int., 78:521-527). Cells were seeded in 96-well plates at 6000 cells/well in 180 μL of RPMI 1640 medium with 10% fetal bovine serum. Twenty-four hours later, the test chemical was dissolved in DMSO, diluted into medium without fetal bovine serum and added at 20 μL/well. DMSO was less than 0.5% of the final concentration. After 48 hours, the medium was removed and cell viability determined.

[2] = tested on: neuro-2a mouse neuroblastoma cells; experiment: MTT cytotoxicity, neuro-2a cells; format: cell-based; settings: mouse/rat NG108-15, N2a, 48 hours, read-out: LC50 (the source's name)
Procedure: as §1

A-10 cells = experiment: cytoskeletal immunofluorescence study in A-10 cells; format: cell-based
Procedure: (§2) Cytoskeletal assays were carried out on 1. […] Therefore, it was hypothesized that 1 might cause mitotic abnormalities by a non-tubulin dependent mechanism, and flow cytometry studies were initiated to look at the effect of the compound on cell cycle distribution (FIG. 2).

[3] = tested on: HeLa cervical cancer cells; experiment: immunofluorescence study in HeLa cells; format: cell-based
Procedure: as §2

MDA-MB-435 cells = experiment: cell cycle analysis by flow cytometry; format: cell-based; settings: 24 hours
Procedure: For cell cycle analysis, MDA-MB-435 cells were treated for 24 hours with vehicle or sample. The cells were harvested and stained with Krishan's reagent. This suspension was analyzed using a Becton Dickinson FACScan flow cytometer, and the data were plotted as propidium iodide intensity versus the number of events. Quality control samples were run with each assay to ensure instrument linearity and resolution.

[4] = tested on: histone deacetylase (HDAC); experiment: HDAC inhibition; format: biochemical
[5] = tested on: National Cancer Institute NCI60 tumor cell lines; experiment: NCI60 tumor cell line panel; format: cell-based, human
Procedure: (§3) Coibamide A was tested against the National Cancer Institute NCI60 tumor cell lines (dtp.nci.nih.gov/branches/btb/ivclsp.html; Shoemaker, R. H. (2006) Nat. Rev. Cancer, 6:813-823), which comprises 60 human cancer cell lines including leukemias, melanomas, ovarian, renal, prostate, breast, colon, lung and central nervous system (CNS) cancers (the data from two screens are provided in FIGS. 3A and 3B). […] Growth inhibition of 50% (GI50) is the drug concentration resulting in a 50% reduction in the net protein increase in control cells during the drug incubation. Similarly, total growth inhibition (TGI) is the drug concentration resulting in zero net protein increase in control cells, and the lethal concentration of 50% (LC50) is the drug concentration resulting in a 50% reduction in the measured protein at the end of the drug treatment as compared to that at the beginning, (a net loss of cells following treatment). […] Coibamide A produced mean cytostatic (GI50 and TGI with range) and cytotoxic (LC50 and range) parameters as follows: log GI50, −8.04 (2.96); log TGI, −5.85 (3.43); log LC50, −5.11 (2.66). These log mean values of <−4 with log range values of >2 indicate both potency and histological selectivity (FIG. 4).

SR (leukemia) = experiment: NCI60 screen, SR; format: cell-based, human
Procedure: as §3

HOP-92 (NSCLC) = experiment: NCI60 screen, HOP-92; format: cell-based, human
Procedure: as §3

COLO 205 (colon cancer) = experiment: NCI60 screen, COLO 205; format: cell-based, human
Procedure: as §3

HCC-2998 (colon cancer) = experiment: NCI60 screen, HCC-2998; format: cell-based, human
Procedure: as §3

HT29 (colon cancer) = experiment: NCI60 screen, HT29; format: cell-based, human
Procedure: as §3

SF-295 (CNS cancer) = experiment: NCI60 screen, SF-295; format: cell-based, human; settings: first screen
Procedure: as §3

SF-539 (CNS cancer) = experiment: NCI60 screen, SF-539; format: cell-based, human
Procedure: as §3

LOX IMVI (melanoma) = experiment: NCI60 screen, LOX IMVI; format: cell-based, human
Procedure: as §3

SK-MEL-5 (melanoma) = experiment: NCI60 screen, SK-MEL-5; format: cell-based, human
Procedure: as §3

SK-OV-3 (ovarian cancer) = experiment: NCI60 screen, SK-OV-3; format: cell-based, human; settings: first screen
Procedure: as §3

[6] = tested on: MDA-MB-231/ATCC (breast cancer); experiment: NCI60 screen, MDA-MB-231/ATCC; format: cell-based, human
Procedure: as §3

T-47D (breast cancer) = experiment: NCI60 screen, T-47D; format: cell-based, human
Procedure: as §3

HL60(TB) (leukemia) = experiment: NCI60 screen, HL60(TB); format: cell-based, human; settings: second screen
SNB-75 (CNS cancer) = experiment: NCI60 screen, SNB-75; format: cell-based, human; settings: second screen
Procedure: as §3

M-14 (melanoma) = experiment: NCI60 screen, M-14; format: cell-based, human; settings: second screen
Procedure: as §3

UACC-62 = experiment: NCI60 screen, UACC-62; format: cell-based, human; settings: second screen
Procedure: as §3

A498 (renal cancer) = experiment: NCI60 screen, A498; format: cell-based, human; settings: second screen
Procedure: as §3

RXF 393 (renal cancer) = experiment: NCI60 screen, RXF 393; format: cell-based, human; settings: second screen
Procedure: as §3

[7] = tested on: MDA-MB-435 (breast cancer); experiment: NCI60 screen, MDA-MB-435; format: cell-based, human; settings: second screen
Procedure: as §3

[8] = mean over the panel, log range in brackets, preliminary

Question: Which CC50 [1] does the source give for `CCC(C)C1C(=O)NC(C)C(=O)N(C)C(CC(C)C)C(=O)NC(Cc2ccc(OC)cc2)C(=O)N(C)C(C)C(=O)OC(C)C(N(C)C(=O)C(CC(C)C)N(C)C(=O)C(COC)N(C)C(=O)C(OC(=O)C(C(C)C)N(C)C)C(C)C)C(=O)N(C)C(COC)C(=O)N1C` (centres unmarked) [Coibamide A] (ξNMe2Val-[Hiv][NMeS](Me)[NMeL][NMeT][NMeS](Me)[NMeI]A[NMeL]Y(Me)[NMeA]; ester 4-C; configuration not given here) here?
Answer: The CC50 was > 0.03 µg/mL and > 23 nM.

Question: And the CC50 [2]?
Answer: Its CC50 is > 0.03 µg/mL and > 23 nM.

Question: What about the microtubule changes (A-10 cells) of the same compound?
Answer: The microtubule changes was “did not show any of the expected microtubule changes”.

Question: What about the mitotic spindles (A-10 cells) of the same compound?
Answer: Its mitotic spindles is “some monopolar mitotic spindles were observed”.

Question: And the mitotic structures ([3]; 100 nM concentration)?
Answer: The mitotic structures was “two aberrant mitotic structures were observed”.

Question: What about the “phenotypic effects on microtubules or nuclear structures” value ([3]; immunofluorescence) of the same compound?
Answer: The value was “did not show any expected phenotypic effects on microtubules or on nuclear structures”.

Question: And the “cells in G2/M” value (MDA-MB-435 cells)?
Answer: The value was “no change in G2/M”.

Question: What about the mitotic accumulation (MDA-MB-435 cells) of the same compound?
Answer: Its mitotic accumulation is “does not cause any significant mitotic accumulation”.

Question: And the “cells in G1 phase” value (MDA-MB-435 cells; dose dependent)?
Answer: The value was “large increase in the number of cells in G1 phase”.

Question: What about the “cells in S phase” value (MDA-MB-435 cells; dose dependent) of the same compound?
Answer: The value was “reduction of cells in S phase”.

Question: What about the HDAC inhibitor activity [4] of the same compound?
Answer: The HDAC inhibitor activity was “no significant activity”.

Question: What about the “activity by cancer type from the mean graph for GI50 values” [5] of the same compound?
Answer: Its value is “consistently active against leukemias, CNS, colon, and breast cancer cells”.

Question: And the GI50 values ([5]; 53 of the 55 cancer cell lines screened)?
Answer: The GI50 values was “Nanomolar or better”.

Question: And the CC50 ([5]; Homo sapiens, mean over the panel, log range in brackets, preliminary, read-out: mean log LC50 (range) (converted))?
Answer: The CC50 was 7760 nM.

Question: What about the “mean log GI50 (range)” value [5, 8] of the same compound?
Answer: Its value is −8.04 (2.96).

Question: And the “mean log TGI (range)” value [5, 8]?
Answer: Its value is −5.85 (3.43).

Question: What about the TGI (SR (leukemia); first screen) of the same compound?
Answer: The TGI was 16.6 nM.

Question: What about the TGI (SR (leukemia); second screen) of the same compound?
Answer: Its TGI is 87.0 nM.

Question: And the TGI (HOP-92 (NSCLC); first screen)?
Answer: Its TGI is 25.4 nM.

Question: What about the TGI (HOP-92 (NSCLC); second screen) of the same compound?
Answer: Its TGI is 11.4 nM.

Question: What about the CC50 (COLO 205 (colon cancer); Homo sapiens, COLO 205, NCI60 screen, read-out: LC50 (the source's name)) of the same compound?
Answer: Its CC50 is 35.8 nM.

Question: And the TGI (COLO 205 (colon cancer); first screen)?
Answer: The TGI was 4.9 nM.

Question: What about the TGI (COLO 205 (colon cancer); second screen) of the same compound?
Answer: The TGI was 15.7 nM.

Question: And the GI50 (HCC-2998 (colon cancer); Homo sapiens, HCC 2998, undefined activity)?
Answer: Its GI50 is < 1 nM.

Question: And the TGI (HCC-2998 (colon cancer); first screen)?
Answer: Its TGI is 8.3 nM.

Question: And the TGI (HCC-2998 (colon cancer); second screen)?
Answer: Its TGI is 93.7 nM.

Question: What about the LC50 (concentration giving 50% net cell loss) (HT29 (colon cancer); Homo sapiens, HT-29, NCI60 screen) of the same compound?
Answer: Its LC50 (concentration giving 50% net cell loss) is 93.3 nM.

Question: And the GI50 (HT29 (colon cancer); Homo sapiens, HT-29, undefined activity)?
Answer: Its GI50 is < 1 nM.

Question: What about the TGI (HT29 (colon cancer); first screen) of the same compound?
Answer: Its TGI is 10.4 nM.

Question: And the TGI (HT29 (colon cancer); second screen)?
Answer: The TGI was 14.6 nM.

Question: What about the TGI (SF-295 (CNS cancer)) of the same compound?
Answer: The TGI was 21.9 nM.

Question: What about the TGI (SF-539 (CNS cancer); first screen) of the same compound?
Answer: Its TGI is 30.3 nM.

Question: And the TGI (SF-539 (CNS cancer); second screen)?
Answer: Its TGI is 28.7 nM.

Question: And the TGI (LOX IMVI (melanoma); first screen)?
Answer: The TGI was 6.6 nM.

Question: And the TGI (LOX IMVI (melanoma); second screen)?
Answer: The TGI was 7.4 nM.

Question: What about the GI50 (SK-MEL-5 (melanoma); Homo sapiens, SK-MEL-5, undefined activity) of the same compound?
Answer: Its GI50 is < 1 nM.

Question: And the TGI (SK-MEL-5 (melanoma); first screen)?
Answer: Its TGI is 6.0 nM.

Question: And the TGI (SK-MEL-5 (melanoma); second screen)?
Answer: The TGI was 26.9 nM.

Question: What about the TGI (SK-OV-3 (ovarian cancer)) of the same compound?
Answer: Its TGI is 9.8 nM.

Question: What about the TGI ([6]; first screen) of the same compound?
Answer: The TGI was 25.1 nM.

Question: What about the TGI ([6]; second screen) of the same compound?
Answer: Its TGI is 2.8 nM.

Question: And the GI50 (T-47D (breast cancer); Homo sapiens, T47D, undefined activity)?
Answer: The GI50 was < 1 nM.

Question: What about the TGI (T-47D (breast cancer); first screen) of the same compound?
Answer: Its TGI is 5.4 nM.

Question: And the TGI (HL60(TB) (leukemia))?
Answer: The TGI was 7.4 nM.

Question: What about the TGI (SNB-75 (CNS cancer)) of the same compound?
Answer: Its TGI is 7.6 nM.

Question: And the TGI (M-14 (melanoma))?
Answer: Its TGI is 11.2 nM.

Question: And the TGI (UACC-62)?
Answer: The TGI was 80.6 nM.

Question: And the TGI (A498 (renal cancer))?
Answer: The TGI was 74.4 nM.

Question: What about the TGI (RXF 393 (renal cancer)) of the same compound?
Answer: The TGI was 82.3 nM.

Question: And the TGI [7]?
Answer: Its TGI is 100 nM.
